In ChEMBL document CHEMBL3102853, “Carbonic anhydrase inhibitors. Synthesis, and molecular structure of novel series N-substituted N'-(2-arylmethylthio-4-chloro-5-methylbenzenesulfonyl)guanidines and their inhibition of human cytosolic isozymes I and II and the transmembrane tumor-associated isozymes IX and XII” (Eur J Med Chem, 2014):
Calls of active or inactive are those of the source. No cut-off for these calls is given here.

What was measured:
Type in all cases: functional
[1] = test system: SW-620; experiment: Cytotoxicity against human SW620 cells at 10 uM
[2] = test system: SF-539; experiment: Cytotoxicity against human SF539 cells
[3] = test system: SNB-75; experiment: Cytotoxicity against human SNB75 cells
[4] = test system: IGROV-1; experiment: Cytotoxicity against human IGROV1 cells
[5] = test system: SF-268; experiment: Cytotoxicity against human SF268 cells at 10 uM
[6] = test system: MCF7; experiment: Cytotoxicity against human MCF7 cells at 10 uM; conditions: read-out: GI
[7] = test system: A498; experiment: Cytotoxicity against human A498 cells
[8] = test system: SR; experiment: Cytotoxicity against human SR cells at 10 uM
[9] = test system: MCF7; experiment: Cytotoxicity against human MCF7 cells
[10] = test system: HT-29; experiment: Cytotoxicity against human HT-29 cells at 10 uM
[11] = test system: SNB-75; experiment: Cytotoxicity against human SNB75 cells at 10 uM; conditions: read-out: GI
[12] = test system: COLO 205; experiment: Cytotoxicity against human COLO205 cells
[13] = test system: CCRF-CEM; experiment: Cytotoxicity against human CCRF-CEM cells
[14] = test system: BT-549; experiment: Cytotoxicity against human BT549 cells
[15] = test system: OVCAR-3; experiment: Cytotoxicity against human OVCAR3 cells at 10 uM
[16] = test system: PC-3; experiment: Cytotoxicity against human PC3 cells at 10 uM; conditions: read-out: GI
[17] = test system: M14; experiment: Cytotoxicity against human M14 cells
[18] = Cytotoxicity against human OVCAR4 cells
[19] = test system: MOLT-4; experiment: Cytotoxicity against human MOLT4 cells at 10 uM; conditions: read-out: GI
[20] = test system: LOX IMVI; experiment: Cytotoxicity against human LOXIMVI cells
[21] = Cytotoxicity against human Hs 578T cells
[22] = test system: PC-3; experiment: Cytotoxicity against human PC3 cells
[23] = test system: SR; experiment: Cytotoxicity against human SR cells
[24] = test system: MDA-MB-468; experiment: Cytotoxicity against human MDA-MB-468 cells
[25] = test system: Malme-3M; experiment: Cytotoxicity against human MALME-3M cells
[26] = test system: UACC-62; experiment: Cytotoxicity against human UACC62 cells
[27] = test system: MOLT-4; experiment: Cytotoxicity against human MOLT4 cells
[28] = test system: DU-145; experiment: Cytotoxicity against human DU145 cells at 10 uM
[29] = test system: KM12; experiment: Cytotoxicity against human KM12 cells at 10 uM
[30] = Cytotoxicity against human UACC257 cells
[31] = test system: SK-MEL-28; experiment: Cytotoxicity against human SK-MEL-28 cells
[32] = test system: MDA-MB-468; experiment: Cytotoxicity against human MDA-MB-468 cells at 10 uM; conditions: read-out: GI
[33] = test system: HL-60(TB); experiment: Cytotoxicity against human HL-60(TB) cells at 10 uM; conditions: read-out: GI
[34] = test system: HOP-92; experiment: Cytotoxicity against human HOP92 cells
[35] = test system: RPMI-8226; experiment: Cytotoxicity against human RPMI8226 cells at 10 uM
[36] = test system: HOP-92; experiment: Cytotoxicity against human HOP92 cells at 10 uM; conditions: read-out: GI
[37] = test system: RPMI-8226; experiment: Cytotoxicity against human RPMI8226 cells
[38] = test system: NCI-H460; experiment: Cytotoxicity against human NCI-H460 cells
[39] = test system: HL-60(TB); experiment: Cytotoxicity against human HL-60(TB) cells
[40] = test system: OVCAR-3; experiment: Cytotoxicity against human OVCAR3 cells
[41] = test system: MDA-MB-435; experiment: Cytotoxicity against human MDA-MB-435 cells
[42] = (§1) Cytotoxicity against human NCI-ADR-RES cells at 10 uM; conditions: read-out: GI
[43] = test system: KM12; experiment: Cytotoxicity against human KM12 cells
[44] = (§2) Cytotoxicity against human Hs 578T cells at 10 uM; conditions: read-out: GI
[45] = test system: NCI-H522; experiment: Cytotoxicity against human NCI-H522 cells
[46] = test system: UACC-62; experiment: Cytotoxicity against human UACC62 cells at 10 uM
[47] = test system: MDA-MB-231; experiment: Cytotoxicity against human MDA-MB-231 cells
[48] = test system: HCC 2998; experiment: Cytotoxicity against human HCC2998 cells
[49] = test system: T47D; experiment: Cytotoxicity against human T47D cells
[50] = test system: A549; experiment: Cytotoxicity against human A549 cells at 10 uM
[51] = test system: SF-268; experiment: Cytotoxicity against human SF268 cells
[52] = test system: OVCAR-8; experiment: Cytotoxicity against human OVCAR8 cells
[53] = test system: HCT-116; experiment: Cytotoxicity against human HCT116 cells
[54] = test system: A498; experiment: Cytotoxicity against human A498 cells at 10 uM
[55] = test system: NCI-H460; experiment: Cytotoxicity against human NCI-H460 cells at 10 uM
[56] = test system: LOX IMVI; experiment: Cytotoxicity against human LOXIMVI cells at 10 uM; conditions: read-out: GI
[57] = test system: SK-MEL-2; experiment: Cytotoxicity against human SK-MEL-2 cells at 10 uM
[58] = test system: T47D; experiment: Cytotoxicity against human T47D cells at 10 uM; conditions: read-out: GI
[59] = test system: K562; experiment: Cytotoxicity against human K562 cells
[60] = test system: SK-MEL-2; experiment: Cytotoxicity against human SK-MEL-2 cells
[61] = test system: SNB-19; experiment: Cytotoxicity against human SNB19 cells
[62] = test system: NCI/ADR-RES; experiment: as §1
[63] = test system: Hs-578T; experiment: as §2
[64] = test system: K562; experiment: Cytotoxicity against human K562 cells at 10 uM; conditions: read-out: GI
[65] = read-out: LC50 (the source's name)

Cc1cc(S(=O)(=O)NC(=N)NCc2ccc(S(N)(=O)=O)cc2)c(SCc2ccc(C(F)(F)F)cc2)cc1Cl
inhibition of growth at 10 µM ([1]; read-out: GI): 68%
GI50 [2]: 5.2 µM
TGI [2]: 17.9 µM
CC50 [2, 65]: 44.8 µM
GI50 [3]: 3 µM
TGI [3]: 15.9 µM
CC50 [3, 65]: 56.4 µM
GI50 [4]: 4.9 µM
TGI [4]: 17.7 µM
CC50 [4, 65]: 64.8 µM
inhibition of growth at 10 µM ([5]; read-out: GI): 69%
inhibition of growth at 10 µM [6]: 47%
GI50 [7]: 3.1 µM
TGI [7]: 17.3 µM
CC50 [7, 65]: 46.5 µM
inhibition of growth at 10 µM ([8]; read-out: GI): 17%
GI50 [9]: 3.3 µM
TGI [9]: 13.6 µM
CC50 [9, 65]: 67.1 µM
inhibition of growth at 10 µM ([10]; read-out: GI): 79%
inhibition of growth at 10 µM [11]: 68%
GI50 [12]: 3.5 µM
TGI [12]: 11.4 µM
CC50 [12, 65]: 58.1 µM
GI50 [13]: 3.5 µM
TGI [13]: 13.4 µM
CC50 [13, 65]: 85.3 µM
GI50 [14]: 4.4 µM
TGI [14]: 12.9 µM
CC50 [14, 65]: 46.9 µM
inhibition of growth at 10 µM ([15]; read-out: GI): 1%
inhibition of growth at 10 µM [16]: 83%
GI50 [17]: 4.5 µM
TGI [17]: 16.8 µM
CC50 [17, 65]: 49.6 µM
GI50 ([18]; OVCAR-4): 4.2 µM
TGI ([18]; OVCAR-4): 20.3 µM
CC50 ([18]; OVCAR-4, read-out: LC50 (the source's name)): 75.9 µM
inhibition of growth at 10 µM [19]: 48%
GI50 [20]: 6.1 µM
TGI [20]: 20.5 µM
CC50 [20, 65]: 54.3 µM
GI50 [21]: 4.6 µM
TGI [21]: 24.1 µM
CC50 [21, 65]: > 100 µM
GI50 [22]: 3.3 µM
TGI [22]: 12.8 µM
CC50 [22, 65]: 43.2 µM
GI50 [23]: 2.4 µM
TGI [23]: 6.8 µM
CC50 [23, 65]: > 100 µM
GI50 [24]: 2.9 µM
TGI [24]: 13.8 µM
CC50 [24, 65]: 66.4 µM
GI50 [25]: 3.8 µM
TGI [25]: 16.3 µM
CC50 [25, 65]: 49.5 µM
GI50 [26]: 2.6 µM
TGI [26]: 9.1 µM
CC50 [26, 65]: 32 µM
GI50 [27]: 3 µM
TGI [27]: 10.5 µM
CC50 [27, 65]: > 100 µM
inhibition of growth at 10 µM ([28]; read-out: GI): 57%
inhibition of growth at 10 µM ([29]; read-out: GI): 89%
GI50 ([30]; UACC-257): 3.7 µM
TGI ([30]; UACC-257): 14.7 µM
CC50 ([30]; UACC-257, read-out: LC50 (the source's name)): 39.4 µM
GI50 [31]: 3.6 µM
TGI [31]: 14 µM
CC50 [31, 65]: 44.3 µM
inhibition of growth at 10 µM [32]: 37%
inhibition of growth at 10 µM [33]: 83%
GI50 [34]: 2.9 µM
TGI [34]: 8.3 µM
CC50 [34, 65]: 32.4 µM
inhibition of growth at 10 µM ([35]; read-out: GI): 58%
inhibition of growth at 10 µM [36]: 89%
GI50 [37]: 2.8 µM
TGI [37]: 9.1 µM
CC50 [37, 65]: 98.6 µM
GI50 [38]: 3.8 µM
TGI [38]: 15.7 µM
CC50 [38, 65]: 63.9 µM
GI50 [39]: 2.4 µM
TGI [39]: 6.4 µM
CC50 [39, 65]: 54.4 µM
GI50 [40]: 4.3 µM
TGI [40]: 15.4 µM
CC50 [40, 65]: 41 µM
GI50 [41]: 3.8 µM
TGI [41]: 12.5 µM
CC50 [41, 65]: 41.9 µM
inhibition of growth at 10 µM [42]: 64%
GI50 [43]: 3.1 µM
TGI [43]: 10.1 µM
CC50 [43, 65]: 41.7 µM
inhibition of growth at 10 µM [44]: 68%
GI50 [45]: 4.6 µM
TGI [45]: 16.8 µM
CC50 [45, 65]: 42.3 µM
inhibition of growth at 10 µM ([46]; read-out: GI): 59%
GI50 [47]: 3.1 µM
TGI [47]: 8.9 µM
CC50 [47, 65]: 34.5 µM
GI50 [48]: 3.1 µM
TGI [48]: 10.4 µM
CC50 [48, 65]: 41.7 µM
GI50 [49]: 4.7 µM
TGI [49]: 20.7 µM
CC50 [49, 65]: 84.4 µM
inhibition of growth at 10 µM ([50]; read-out: GI): 60%
GI50 [51]: 4.8 µM
TGI [51]: 18.5 µM
CC50 [51, 65]: 55.8 µM
GI50 [52]: 5 µM
TGI [52]: 21 µM
CC50 [52, 65]: 70.2 µM
GI50 [53]: 4.1 µM
TGI [53]: 15.9 µM
CC50 [53, 65]: 46.6 µM
inhibition of growth at 10 µM ([54]; read-out: GI): 63%
inhibition of growth at 10 µM ([55]; read-out: GI): 53%
inhibition of growth at 10 µM [56]: 67%
inhibition of growth at 10 µM ([57]; read-out: GI): 94%
inhibition of growth at 10 µM [58]: 30%
GI50 [59]: 3.7 µM
TGI [59]: 25.3 µM
CC50 [59, 65]: > 100 µM
GI50 [60]: 2.5 µM
TGI [60]: 6.2 µM
CC50 [60, 65]: 22.2 µM
GI50 [61]: 5 µM
TGI [61]: 19.3 µM
CC50 [61, 65]: 54.4 µM

Cc1cc(S(=O)(=O)NC(=N)Nc2nnc(S(N)(=O)=O)s2)c(SCc2ccccc2)cc1Cl
growth inhibition (GI) [1]: inactive
growth inhibition (GI) [5]: inactive
inhibition of growth at 10 µM [6]: 11%
growth inhibition (GI) [8]: inactive
growth inhibition (GI) [10]: inactive
inhibition of growth at 10 µM [11]: 18%
growth inhibition (GI) [15]: inactive
inhibition of growth at 10 µM [16]: 3%
inhibition of growth at 10 µM [19]: 14%
growth inhibition (GI) [28]: inactive
growth inhibition (GI) [29]: inactive
inhibition of growth at 10 µM [32]: 11%
inhibition of growth at 10 µM [33]: 15%
growth inhibition (GI) [35]: inactive
inhibition of growth at 10 µM [36]: 1%
growth inhibition (GI) [62]: inactive
growth inhibition (GI) [63]: inactive
growth inhibition (GI) [46]: inactive
growth inhibition (GI) [50]: inactive
inhibition of growth at 10 µM [64]: 2%
growth inhibition (GI) [54]: inactive
growth inhibition (GI) [55]: inactive
inhibition of growth at 10 µM [56]: 4%
growth inhibition (GI) [57]: inactive
inhibition of growth at 10 µM [58]: 6%
